Results on two compounds are retold here after patent US20120220581A1, “IMIDAZO[1,2-b]PYRIDAZINE DERIVATIVES AND THEIR USE AS PDE10 INHIBITORS” (Janssen-Cilag, S.A., priority 2009, published 2012).

Read-outs that look alike come from different tables or passages of the source.

For test [1], the target named is T1, PDE10 (Rattus norvegicus, UniProt Q9QYJ6).
T1 construct: from tissue; host or cells: rat brain sections, striatum (in vivo dosing, ex vivo autoradiography)
T1 sequence (Q9QYJ6 1-794): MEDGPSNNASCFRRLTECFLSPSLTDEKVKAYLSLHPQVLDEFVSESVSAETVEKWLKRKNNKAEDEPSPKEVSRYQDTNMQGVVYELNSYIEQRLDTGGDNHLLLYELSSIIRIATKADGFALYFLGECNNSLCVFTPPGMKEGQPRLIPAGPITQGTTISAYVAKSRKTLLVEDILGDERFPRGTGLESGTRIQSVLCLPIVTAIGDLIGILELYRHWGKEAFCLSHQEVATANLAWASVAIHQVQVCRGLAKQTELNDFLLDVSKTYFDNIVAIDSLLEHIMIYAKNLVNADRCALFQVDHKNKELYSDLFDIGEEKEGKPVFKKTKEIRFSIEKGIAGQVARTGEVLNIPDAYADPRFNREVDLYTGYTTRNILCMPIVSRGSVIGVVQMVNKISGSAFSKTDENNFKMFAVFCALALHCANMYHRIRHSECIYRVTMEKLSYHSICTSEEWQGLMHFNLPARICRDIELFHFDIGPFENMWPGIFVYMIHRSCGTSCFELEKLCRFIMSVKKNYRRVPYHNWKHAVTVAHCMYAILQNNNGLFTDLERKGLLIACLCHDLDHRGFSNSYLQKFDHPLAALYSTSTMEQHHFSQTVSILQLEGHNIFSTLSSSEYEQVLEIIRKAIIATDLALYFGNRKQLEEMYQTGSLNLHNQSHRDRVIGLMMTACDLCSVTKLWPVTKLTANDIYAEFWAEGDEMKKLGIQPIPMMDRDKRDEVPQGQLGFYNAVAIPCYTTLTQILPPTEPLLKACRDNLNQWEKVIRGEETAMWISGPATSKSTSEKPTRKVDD
The test is described as follows: PDE10 occupancy ([3H]-MP-10, striatum). In kind it is in vivo. Conditions: rat; for ED50: dose response; for receptor occupancy at 10 mg/kg: single dose 10 mg/kg, subcutaneous, read-out: SD sc % occupancy at 10 mg/kg. The procedure, abridged: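 Male Wistar rats (200 g) dosed s.c. or p.o.; occupancy measured 1 h post-dose. [^3H]-MP-10 (10 μCi/animal) given i.v. 30 min before sacrifice.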

The target of test [2] is PDE5A3 (Homo sapiens, UniProt O76074). The test is described as follows: In vitro PDE selectivity assay (SPA), PDE5A3. It is filed as biochemical. The conditions noted are these: hPDE5A3; read-out: PDE 5A3 (expressed as pIC50) (converted). The procedure, abridged:
(§1)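 Inhibition of each PDE isoform was measured by scintillation proximity assay with ³H-cyclic nucleotide substrate, using incubation buffer, substrate concentration, incubation time and stop solution adapted per isoform. Compounds were tested in dose-response against 1% DMSO controls and enzyme-free blanks. IC50 came from a least-squares fit of blank-subtracted % of control versus concentration.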

The target of test [3] is PDE4D3 (Homo sapiens, UniProt Q08499). In words: In vitro PDE selectivity assay (SPA), PDE4D3. It is filed as biochemical. The conditions noted are these: hPDE4D3; read-out: PDE 4D3 (expressed as pIC50) (converted). The procedure, abridged:
as §1

Test [4] has as its system PCP-induced hyperlocomotion in rats. In words: PCP-induced hyperlocomotion in rats. In kind it is in vivo. Conditions: Rattus norvegicus. As for the experimental part:
Motor activity [horizontal activity (locomotion) and vertical activity (rearing)] was recorded in male Wiga rats (body weight: 175-275 g; housed overnight in groups of 7 rats) using microprocessor-based activity monitors (MED Associates; length×width×height: 43.2×43.2×41.5 cm) over a period of 30 min. The resolution of the system was set at 100 msec. Total distance was defined as the distance traveled, measured by changes in the number or location of interrupted xy-beams (located in two arrays of 32 infrared light beams (1.25 cm apart) perpendicular to each other in a horizontal plane 2.0 cm above the floor). Vertical activity was defined as the number of periods of continuous breaks reported by an infrared array of 32 light beams in a horizontal plane 13 cm above the floor. The intensity of the light within the activity meters (measured in the centre at floor level) ranged between 110 and 130 LUX.
Male Wiga rats (200 to 260 g) were pretreated with test compound or solvent (10 ml/kg, s.c.) and placed in individual cages. At a predefined interval thereafter (60 min.), the rats were challenged with PCP (1.25 mg/kg, i.v.) and motor activity was measured over a period of 30 min starting immediately after the PCP challenge. […]

Test [5] relates to apomorphine-induced stereotypy in rats. The test is described as follows: Apomorphine-induced stereotypy in rats (APO). It is filed as in vivo. Conditions: Rattus norvegicus; dose at which 50% of the tested animals show the effect; ≧: active in 30% of the animals at the indicated dose; ≦: active in 60%. As for the experimental part: Apomorphine (1.0 mg/kg, i.v.)-induced stereotypy (compulsive sniffing, licking, chewing) was scored every 5 min over the first hour after injection of apomorphine, following a 1 hour interval pre-treatment with the test compound. The score system was: (3) pronounced, (2) moderate, (1) slight, and (0) absent.

Setting [6] is: sc, subcutaneous administration, read-out: PDE10 in vivo occupancy ED50 sc.
Where [7] appears, read: oral administration, read-out: PDE10 in vivo occupancy ED50 po.

Sequence of PDE4D3 (Q08499 1-673 isoform Q08499-2): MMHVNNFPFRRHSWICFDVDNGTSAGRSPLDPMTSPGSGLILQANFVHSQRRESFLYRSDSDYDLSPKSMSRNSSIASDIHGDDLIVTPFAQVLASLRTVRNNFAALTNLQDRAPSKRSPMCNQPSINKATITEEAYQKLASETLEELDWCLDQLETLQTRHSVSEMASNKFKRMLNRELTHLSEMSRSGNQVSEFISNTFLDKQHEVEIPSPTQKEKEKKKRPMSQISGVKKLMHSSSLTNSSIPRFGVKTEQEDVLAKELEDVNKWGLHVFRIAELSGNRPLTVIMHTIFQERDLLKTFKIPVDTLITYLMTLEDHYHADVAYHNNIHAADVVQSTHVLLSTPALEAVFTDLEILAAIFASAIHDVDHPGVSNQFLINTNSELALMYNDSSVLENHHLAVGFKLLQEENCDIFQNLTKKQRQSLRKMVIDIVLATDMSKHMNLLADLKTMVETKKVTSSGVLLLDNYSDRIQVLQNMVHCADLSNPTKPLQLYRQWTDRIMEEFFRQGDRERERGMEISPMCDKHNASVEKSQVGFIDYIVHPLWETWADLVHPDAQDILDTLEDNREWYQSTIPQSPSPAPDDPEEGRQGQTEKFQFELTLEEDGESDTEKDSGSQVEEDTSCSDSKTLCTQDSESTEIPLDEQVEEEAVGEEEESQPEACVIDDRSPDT

Take `COCCc1ccc(-c2c(C)nc3c(N4CCOCC4)ccnn23)cn1` [compound 1, 3-[6-(2-methoxyethyl)-3-pyridinyl]-2-methyl-8-(4-morpholinyl)-imidazo[1,2-b]pyridazine]: the ED50 in test [1] (setting [6]) stood at 0.48 mg/kg; in test [1] (setting [7]), 1.4 mg/kg; in test [4], 2 mg/kg; in test [5], 1.3 mg/kg. In test [1] (sc), the receptor occupancy at 10 mg/kg amounted to 76%. The IC50 in test [2] is 17 µM; in test [3], 30.9 µM.

With `COCCOc1ccc(-c2c(C)nc3c(-c4ccncc4)ccnn23)cn1` [compound 21, 3-[6-(2-methoxyethoxy)-3-pyridinyl]-2-methyl-8-(4-pyridinyl)-imidazo[1,2-b]pyridazine], the ED50 in test [1] (setting [6]) amounted to 2.6 mg/kg; in test [1] (setting [7]), 14 mg/kg; in test [4], 6.1 mg/kg; in test [5], 1.5 mg/kg. Besides, the receptor occupancy at 10 mg/kg in test [1] (sc) is 61%. Moreover, the IC50 in test [2] was 19.1 µM; in test [3], 28.2 µM.

Broadly, the ED50 is the dose at which the effect has come halfway, by size or by number of responders.
